Tests used:
Test in all cases: relative viability (nuclei count vs DMSO), 5 days (fraction); higher = more cells survive
[1] = compound: CN(NC(=O)CC(=O)NN(C)C(=S)c1ccccc1)C(=S)c1ccccc1 [Elesclomol] + Cc1cc(Nc2cc(N3CCN(C)CC3)nc(Sc3ccc(NC(=O)C4CC4)cc3)n2)n[nH]1 [Tozasertib] (partner 0.1 µM)
How it was run: (§1)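 Relative viability divides the nuclei count in treated wells by that in vehicle wells. Lung cancer cell lines were seeded in 1536-well plates, dosed by pin tool the next day, and fixed and stained after 5 days in one step with final 0.05% Triton X-100, 1% formaldehyde and 1 ug/ml Hoechst. Dosing was a single drug or a fixed anchor-drug dose plus five library-drug doses (not always all listed) in √10 steps, and values are medians of duplicate plates imaged at 4×.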

[2] = compound: CN(NC(=O)CC(=O)NN(C)C(=S)c1ccccc1)C(=S)c1ccccc1 [Elesclomol] + CS(=O)(=O)N1CCN(Cc2cc3nc(-c4cccc5[nH]ncc45)nc(N4CCOCC4)c3s2)CC1 [Pictilisib] (partner 1 µM)
How it was run: as §1

[3] = compound: CN(NC(=O)CC(=O)NN(C)C(=S)c1ccccc1)C(=S)c1ccccc1 [Elesclomol] + N=C(N)NC(=N)NCCc1ccccc1 [Phenformin] (partner 250 µM)
How it was run: as §1

[4] = compound: CN(NC(=O)CC(=O)NN(C)C(=S)c1ccccc1)C(=S)c1ccccc1 [Elesclomol] + Cc1nc(NC(=O)N2CCC[C@H]2C(N)=O)sc1-c1ccnc(C(C)(C)C(F)(F)F)c1 [Alpelisib] (partner 2 µM)
How it was run: as §1

[5] = compound: CN(NC(=O)CC(=O)NN(C)C(=S)c1ccccc1)C(=S)c1ccccc1 [Elesclomol] + O=C(CCCCCCC(=O)Nc1ccccc1)NO [Vorinostat] (partner 1 µM)
How it was run: as §1

Row | Cell Line | relative viability ([1]; first compound 0.003162 µM) | relative viability ([1]; first compound 0.01 µM) | relative viability ([1]; first compound 0.03162 µM) | relative viability ([1]; first compound 0.1 µM) | relative viability ([2]; first compound 0.003162 µM) | relative viability ([2]; first compound 0.01 µM) | relative viability ([2]; first compound 0.03162 µM) | relative viability ([2]; first compound 0.1 µM) | relative viability ([3]; first compound 0.003162 µM) | relative viability ([3]; first compound 0.01 µM) | relative viability ([3]; first compound 0.03162 µM) | relative viability ([3]; first compound 0.1 µM) | relative viability ([4]; first compound 0.003162 µM) | relative viability ([4]; first compound 0.01 µM) | relative viability ([4]; first compound 0.03162 µM) | relative viability ([4]; first compound 0.1 µM) | relative viability ([5]; first compound 0.003162 µM) | relative viability ([5]; first compound 0.01 µM) | relative viability ([5]; first compound 0.03162 µM) | relative viability ([5]; first compound 0.1 µM)
1 | 201T | 0.984 | 0.88 | 0.911 | 0.536 | 0.672 | 0.652 | 0.665 | 0.674 | 0.464 | 0.428 | 0.435 | 0.385 | 0.985 | 1.02 | 1.03 | 0.964 | 0.968 | 0.995 | 0.869 | 0.68
2 | A-427 | 0.226 | 0.186 | 0.149 | 0.0996 | 0.678 | 0.345 | 0.648 | 0.45 | 0.342 | 0.216 | 0.319 | 0.104 | 1.04 | 1.07 | 1.15 | 0.558 | 0.823 | 0.755 | 0.192 | 0.15
3 | ABC-1 | 0.193 | 0.203 | 0.18 | 0.187 | 0.26 | 0.286 | 0.217 | 0.223 | 0.239 | 0.22 | 0.224 | 0.17 | 0.292 | 0.313 | 0.23 | 0.256 | 0.426 | 0.249 | 0.262 | 0.244
4 | BEN | 0.592 | 0.399 | 0.45 | 0.402 | 0.549 | 0.292 | 0.3 | 0.188 | 0.264 | 0.233 | 0.259 | 0.246 | 0.873 | 0.351 | 0.338 | 0.242 | 0.585 | 0.563 | 0.448 | 0.385
5 | CAL-12T | 0.268 | 0.17 | 0.0901 | 0.0485 | 0.521 | 0.146 | 0.0826 | 0.0934 | 0.456 | 0.159 | 0.153 | 0.0571 | 1.19 | 0.239 | 0.312 | 0.0757 | 0.66 | 0.245 | 0.101 | 0.0721
6 | COR-L23 | 0.234 | 0.155 | 0.15 | 0.0966 | 0.662 | 0.308 | 0.224 | 0.24 | 0.367 | 0.187 | 0.163 | 0.053 | 0.694 | 0.366 | 0.268 | 0.0856 | 0.378 | 0.156 | 0.144 | 0.0678
7 | COR-L 105 | 0.385 | 0.285 | 0.223 | 0.142 | 0.398 | 0.284 | 0.249 | 0.219 | 0.417 | 0.315 | 0.289 | 0.168 | 1.11 | 0.712 | 0.409 | 0.256 | 1 | 0.57 | 0.361 | 0.336
8 | ChaGo-K-1 | 0.223 | 0.177 | 0.147 | 0.163 | 0.481 | 0.239 | 0.194 | 0.242 | 0.503 | 0.393 | 0.275 | 0.174 |  |  |  |  | 0.791 | 0.638 | 0.338 | 0.146
9 | EKVX | 0.343 | 0.281 | 0.199 | 0.141 | 0.386 | 0.249 | 0.176 | 0.157 | 0.219 | 0.225 | 0.201 | 0.172 | 0.857 | 0.369 | 0.328 | 0.174 | 0.659 | 0.336 | 0.241 | 0.253
10 | EMC-BAC-2 | 0.307 | 0.265 | 0.275 | 0.213 | 0.606 | 0.374 | 0.48 | 0.316 | 0.552 | 0.372 | 0.414 | 0.266 | 0.743 | 0.649 | 0.616 | 0.389 | 0.486 | 0.231 |  | 0.22
11 | EPLC-272H | 0.223 |  | 0.331 | 0.101 | 0.349 |  | 0.341 | 0.11 | 0.293 |  | 0.291 | 0.172 | 1.07 |  | 0.861 | 0.249 | 0.178 | 0.0788 | 0.133 | 0.129
12 | H3255 | 0.569 | 0.525 | 0.405 | 0.364 | 0.433 | 0.336 | 0.315 | 0.266 | 0.312 | 0.338 | 0.366 | 0.313 | 0.721 | 0.473 | 0.348 | 0.309 | 0.843 | 0.62 | 0.426 | 0.44
13 | HARA | 0.155 | 0.108 | 0.0878 | 0.0669 | 0.548 | 0.325 | 0.363 | 0.081 | 0.506 | 0.413 | 0.475 | 0.169 | 0.803 | 0.687 | 0.944 | 0.17 | 0.607 | 0.542 | 0.616 | 0.163
14 | HCC-15 | 0.358 | 0.292 | 0.204 | 0.159 | 0.719 | 0.522 | 0.523 | 0.289 | 0.452 | 0.438 | 0.335 | 0.231 | 0.931 | 0.645 | 0.559 | 0.236 | 0.81 | 0.776 | 0.645 | 0.265
15 | HCC-44 | 0.897 | 0.794 | 0.17 | 0.194 | 0.592 | 0.578 | 0.554 | 0.322 | 0.375 | 0.148 | 0.091 | 0.0922 | 0.812 | 0.723 | 0.768 | 0.371 | 1.09 | 1.16 | 1.16 | 1.08
16 | HCC-78 | 0.378 | 0.426 | 0.399 | 0.483 | 0.252 | 0.2 | 0.229 | 0.217 | 0.631 | 0.758 | 0.539 | 0.615 | 0.27 | 0.354 | 0.325 | 0.307 | 0.46 | 0.38 | 0.36 | 0.553
